Here are results for 1 compound from US8425908B2, “Treatment with anti-ErbB2 antibodies” (Genentech, Inc., priority 1997, dated 2013).

The data set concerns ErbB2-overexpressing metastatic breast cancer. Briefly: Randomized clinical study of chemotherapy with or without HERCEPTIN in patients with metastatic breast cancer. The data set is classed as in vivo, human. The text has this: Eligibility Criteria Patients had to fulfill all of the following criteria to be eligible for study admission: • Metastatic breast cancer • Overexpression of the ErbB2 (HER2) oncogene (2+ to 3+ as determined by immunohistochemistry or fluorescence in situ hybridization (FISH). [Tumor expression of ErbB2 can be determined by immunohistochemical analysis, as previously described (Slamon et al., [1987] and [1989], supra), of a set of thin sections prepared from the patient's paraffin-archived tumor blocks. The primary detecting antibody used is murine 4D5 MAb, which has the same CDRs as the humanized antibody used for the treatment.
Measurable disease was defined as any mass reproducibly measurable in two perpendicular diameters by physical examination, X-ray (plain films), computerized tomography (CT), magnetic resonance imaging (MRI), ultrasound, or photographs.
Osteoblastic metastases, pleural effusions, or ascites were not considered to be measurable. Measurable lesions must be at least 1 cm in greatest dimension. Enumeration of evaluable sites of metastatic disease and number of lesions in an evaluable site (e.g. lung) had to be recorded on the appropriate Case Report Form (CRF). If a large number of pulmonary or hepatic lesions were present, the six largest lesions per site were followed. • The ability to understand and willingness to sign a written informed consent form • Women≧18 years • Suitable candidates for receiving concomitant cytotoxic chemotherapy as evidenced by screening laboratory assessments of hematologic, renal, hepatic, and metabolic functions.
Exclusion Criteria Patients with any of the following were excluded from study entry: • Prior cytotoxic chemotherapy for metastatic breast cancer Patients may have received prior hormonal therapy (e.g. tamoxifen) for metastatic disease or cytotoxic therapy in the adjuvant setting. • Concomitant malignancy that has not been curatively treated • A performance status of <60% on the Karnofsky scale • Pregnant or nursing women; women of childbearing potential, unless using effective contraception as determined by the investigator • Bilateral breast cancer (either both primary tumors must have 2+ to 3+ HER2 overexpression, or the metastatic site must have 2+ to 3+ HER2 overexpression) • Use of investigational or unlicensed agents within 30 days prior to study entry • Clinically unstable or untreated metastases to the brain (e.g. requiring radiation therapy)
Half the patients (stratified by chemotherapy) were randomized to additionally receive the HERCEPTIN® antibody (see below).
Beginning on day 7, patients received weekly administration of 2 mg/kg antibody (i.v.) over a 90-minute period. […]

Setting [1] is: median follow-up of 10.5 months.

Molecules are shown by their SMILES.

Take `CC(=O)O[C@H]1C(=O)[C@@]2(C)[C@H]([C@H](OC(=O)c3ccccc3)[C@]3(O)C[C@H](OC(=O)[C@H](O)[C@@H](NC(=O)c4ccccc4)c4ccccc4)C(C)=C1C3(C)C)[C@]1(OC(C)=O)CO[C@@H]1C[C@@H]2O` [T, paclitaxel]: the “syndrome of myocardial dysfunction, Grade 3/4” value amounted to 0%. Moreover, under setting [1], the “AE (%), overall severe adverse events” value turned out to be 59%; the “RR (%), response rates” value is given as 25.0%; the “TTP (months), time to disease progression” value came to 4.2 months.
